From PubChem BioAssay AID256 (DTP/NCI, 2004)
Several values for one entry are separate records, joined by “and”; a condition that tells them apart may be missing. Identical values can stand only once. Inconclusive results and toxic doses are left out. Rule for the calls: active = survival T/C of 150% or more; inactive = T/C below 125% in these data.

Test system: CD2F1 mice, L1210 leukemia ip, survival T/C
Assay: NCI In Vivo Anticancer Drug Screen. Data for tumor model L1210 Leukemia (intraperitoneal) in CD2F1 (CDF1) mice
Details: higher = longer survival
Summary of the method: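 Transplantable tumor in mice; compound-treated vs vehicle-treated groups. Read-out = treated/control ratio of the measured endpoint.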

[1] = endpoint: mean survival time, dose: 100.0 mg/kg/injection, schedule: Q04DX003 (ip), vehicle: saline
[2] = endpoint: mean survival time, dose: 200.0 mg/kg/injection, schedule: Q04DX003 (ip), vehicle: saline
[3] = endpoint: mean survival time, dose: 12.5 mg/kg/injection, schedule: Q04DX003 (ip), vehicle: saline
[4] = endpoint: mean survival time, dose: 25.0 mg/kg/injection, schedule: Q04DX003 (ip), vehicle: saline
[5] = endpoint: mean survival time, dose: 50.0 mg/kg/injection, schedule: Q04DX003 (ip), vehicle: saline
[6] = endpoint: mean survival time, dose: 100.0 mg/kg/injection, schedule: Q04DX003 (ip), vehicle: saline with Tween-80
[7] = endpoint: mean survival time, dose: 200.0 mg/kg/injection, schedule: Q04DX003 (ip), vehicle: saline with Tween-80
[8] = endpoint: mean survival time, dose: 400.0 mg/kg/injection, schedule: Q04DX003 (ip), vehicle: saline with Tween-80
[9] = endpoint: mean survival time, dose: 25.0 mg/kg/injection, schedule: Q04DX003 (ip), vehicle: saline with Tween-80
[10] = endpoint: mean survival time, dose: 50.0 mg/kg/injection, schedule: Q04DX003 (ip), vehicle: saline with Tween-80
[11] = endpoint: mean survival time, dose: 100.0 mg/kg/injection, schedule: Q01DX009 (ip), vehicle: saline
[12] = endpoint: mean survival time, dose: 200.0 mg/kg/injection, schedule: Q01DX009 (ip), vehicle: saline

Measured: T/C

Nc1nc2c(c(=O)[nH]1)N1C(=S)N(c3ccc(C(=O)NC(CCC(=O)O)C(=O)O)cc3)CC1CN2 (configuration not stated)
inactive: endpoint: mean survival time, dose: 100.0 mg/kg/injection, schedule: Q01DX001 (ip), vehicle: sodium bicarbonate 104 % of control | endpoint: mean survival time, dose: 200.0 mg/kg/injection, schedule: Q01DX001 (ip), vehicle: sodium bicarbonate 98 % of control | endpoint: mean survival time, dose: 400.0 mg/kg/injection, schedule: Q01DX001 (ip), vehicle: sodium bicarbonate 102 % of control

c1ccc([P+](c2ccccc2)(c2ccccc2)c2ccccc2)cc1
inactive: endpoint: mean survival time, dose: 0.63 mg/kg/injection, schedule: Q01DX009 (ip), vehicle: saline 108 % of control | endpoint: mean survival time, dose: 1.25 mg/kg/injection, schedule: Q01DX009 (ip), vehicle: saline 111 % of control | endpoint: mean survival time, dose: 2.5 mg/kg/injection, schedule: Q01DX009 (ip), vehicle: saline 117 % of control | endpoint: mean survival time, dose: 5.0 mg/kg/injection, schedule: Q01DX009 (ip), vehicle: saline 122 % of control

Nc1ncnc2c1ncn2CCNC(=S)Nc1ccccc1
inactive: endpoint: mean survival time, dose: 6.25 mg/kg/injection, schedule: Q01DX005 (ip), vehicle: other 88 % of control | endpoint: mean survival time, dose: 12.5 mg/kg/injection, schedule: Q01DX005 (ip), vehicle: other 92 % of control | endpoint: mean survival time, dose: 25.0 mg/kg/injection, schedule: Q01DX005 (ip), vehicle: other 88 % of control | endpoint: mean survival time, dose: 50.0 mg/kg/injection, schedule: Q01DX005 (ip), vehicle: other 92 % of control | endpoint: mean survival time, dose: 100.0 mg/kg/injection, schedule: Q01DX005 (ip), vehicle: other 92 % of control

C1CC2CNC1CN2
inactive: [1] 96 % of control | [2] 98 % of control | endpoint: mean survival time, dose: 400.0 mg/kg/injection, schedule: Q04DX003 (ip), vehicle: saline 94 % of control

O=c1[nH]cnc2n[nH]nc12
inactive: endpoint: mean survival time, dose: 12.5 mg/kg/injection, schedule: Q01DX009 (ip), vehicle: Klucel (hydroxypropylcellulose) (HPC) 116 % of control | endpoint: mean survival time, dose: 25.0 mg/kg/injection, schedule: Q01DX009 (ip), vehicle: Klucel (hydroxypropylcellulose) (HPC) 119 % of control | endpoint: mean survival time, dose: 75.0 mg/kg/injection, schedule: Q01DX001 (ip), vehicle: other 103 % of control | endpoint: mean survival time, dose: 150.0 mg/kg/injection, schedule: Q01DX001 (ip), vehicle: other 108 % of control | endpoint: mean survival time, dose: 300.0 mg/kg/injection, schedule: Q01DX001 (ip), vehicle: other 108 % of control

CC(=O)OCC1OC(OC(C)=O)C(NC(=O)C[NH-])C(OC(C)=O)C1OC(C)=O.CC(=O)OCC1OC(OC(C)=O)C(NC(=O)C[NH-])C(OC(C)=O)C1OC(C)=O.[Cl][Pt+2][Cl] (configuration not stated)
inactive: [3] 96 % of control | [4] 98 % of control | [5] 98 % of control | [1] 106 % of control | [2] 98 % of control

CC(=O)Oc1ccc(N2C(=O)C=CC2=O)cc1 (tested in a mixture with another compound)
inactive: endpoint: mean survival time, dose: 100.0 mg/kg/injection, schedule: Q01DX009 (ip), vehicle: saline with Tween-80 95 % of control | [6] 91 % of control | endpoint: mean survival time, dose: 200.0 mg/kg/injection, schedule: Q01DX009 (ip), vehicle: saline with Tween-80 91 % of control | [7] 90 % of control | endpoint: mean survival time, dose: 400.0 mg/kg/injection, schedule: Q01DX009 (ip), vehicle: saline with Tween-80 91 % of control | [8] 87 % of control

CC(C)(C)OOC(=O)Nc1ccc(Cl)cc1
inactive: endpoint: mean survival time, dose: 25.0 mg/kg/injection, schedule: Q01DX001 (ip), vehicle: saline with Tween-80 88 % of control | endpoint: mean survival time, dose: 50.0 mg/kg/injection, schedule: Q01DX001 (ip), vehicle: saline with Tween-80 92 % of control | endpoint: mean survival time, dose: 100.0 mg/kg/injection, schedule: Q01DX001 (ip), vehicle: saline with Tween-80 88 % of control

NC(N)=N/N=C/c1ccc(Cl)c(Cl)c1
inactive: endpoint: mean survival time, dose: 12.5 mg/kg/injection, schedule: Q04DX003 (ip), vehicle: saline with Tween-80 105 % of control | [9] 97 % of control | [10] 94 % of control

O=C(O)C(O)C(=O)O.[NH2-].[NH2-].[Pt+2]
inactive: [4] 108 % of control | [5] 114 % of control | [1] 120 % of control

COc1ccc(OC)c(C2C(C#N)C(C=O)NC(C=O)C2C#N)c1 (configuration not stated)
inactive: endpoint: mean survival time, dose: 100.0 mg/kg/injection, schedule: Q01DX009 (ip), vehicle: other 100 % of control | endpoint: mean survival time, dose: 200.0 mg/kg/injection, schedule: Q01DX009 (ip), vehicle: other 104 % of control | endpoint: mean survival time, dose: 400.0 mg/kg/injection, schedule: Q01DX009 (ip), vehicle: other 100 % of control

O=[N+]([O-])c1cccc(/C=C/c2ccccn2)c1
inactive: endpoint: mean survival time, dose: 50.0 mg/kg/injection, schedule: Q01DX009 (ip), vehicle: Klucel (hydroxypropylcellulose) (HPC) 98 % of control | endpoint: mean survival time, dose: 100.0 mg/kg/injection, schedule: Q01DX009 (ip), vehicle: Klucel (hydroxypropylcellulose) (HPC) 98 % of control | endpoint: mean survival time, dose: 200.0 mg/kg/injection, schedule: Q01DX009 (ip), vehicle: Klucel (hydroxypropylcellulose) (HPC) 90 % of control

O=c1c2ncn(C3OC(CO)C(O)C3O)c2nc[n]1[Hg][c]1ccccc1 (configuration not stated)
inactive: endpoint: median survival time, dose: 0.79 mg/kg/injection, schedule: Q01DX005 (ip), vehicle: saline 103 % of control | endpoint: median survival time, dose: 1.56 mg/kg/injection, schedule: Q01DX005 (ip), vehicle: saline 111 % of control | endpoint: median survival time, dose: 3.12 mg/kg/injection, schedule: Q01DX005 (ip), vehicle: saline 115 % of control | endpoint: median survival time, dose: 6.25 mg/kg/injection, schedule: Q01DX005 (ip), vehicle: saline 105 % of control | endpoint: median survival time, dose: 12.5 mg/kg/injection, schedule: Q01DX005 (ip), vehicle: saline 112 % of control

NC(N)=NC(N)=Nc1ccc(C(=O)O)c(O)c1
inactive: [11] 106 % of control | [12] 95 % of control | endpoint: mean survival time, dose: 400.0 mg/kg/injection, schedule: Q01DX009 (ip), vehicle: saline 95 % of control

O=S(=O)(O)c1ccc(-c2ccc(S(=O)(=O)O)cc2)cc1
inactive: endpoint: mean survival time, dose: 6.3 mg/kg/injection, schedule: Q01DX009 (ip), vehicle: saline 104 % of control | endpoint: mean survival time, dose: 6.3 mg/kg/injection, schedule: Q04DX003 (ip), vehicle: saline 102 % of control | endpoint: mean survival time, dose: 12.5 mg/kg/injection, schedule: Q01DX001 (ip), vehicle: saline 101 % of control | endpoint: mean survival time, dose: 12.5 mg/kg/injection, schedule: Q01DX009 (ip), vehicle: saline 104 % of control | [3] 100 % of control | endpoint: mean survival time, dose: 25.0 mg/kg/injection, schedule: Q01DX001 (ip), vehicle: saline 103 % of control | endpoint: mean survival time, dose: 25.0 mg/kg/injection, schedule: Q01DX009 (ip), vehicle: saline 101 % of control | [4] 100 % of control | endpoint: mean survival time, dose: 50.0 mg/kg/injection, schedule: Q01DX001 (ip), vehicle: saline 101 % of control | endpoint: mean survival time, dose: 50.0 mg/kg/injection, schedule: Q01DX009 (ip), vehicle: saline 104 % of control | [5] 93 % of control | endpoint: mean survival time, dose: 100.0 mg/kg/injection, schedule: Q01DX001 (ip), vehicle: saline 100 % of control and 108 % of control | [11] 106 % of control | [1] 103 % of control | endpoint: mean survival time, dose: 200.0 mg/kg/injection, schedule: Q01DX001 (ip), vehicle: saline 100 % of control and 105 % of control | [12] 98 % of control | [2] 100 % of control | endpoint: mean survival time, dose: 400.0 mg/kg/injection, schedule: Q01DX001 (ip), vehicle: saline 104 % of control and 107 % of control

COC(=O)C(F)C(Br)C(=O)OC (configuration not stated)
inactive: endpoint: mean survival time, dose: 3.12 mg/kg/injection, schedule: Q01DX009 (ip), vehicle: saline with Tween-80 108 % of control | endpoint: mean survival time, dose: 6.25 mg/kg/injection, schedule: Q01DX009 (ip), vehicle: saline with Tween-80 97 % of control | endpoint: mean survival time, dose: 12.5 mg/kg/injection, schedule: Q01DX009 (ip), vehicle: saline with Tween-80 107 % of control | endpoint: mean survival time, dose: 25.0 mg/kg/injection, schedule: Q01DX009 (ip), vehicle: saline with Tween-80 105 % of control | endpoint: mean survival time, dose: 50.0 mg/kg/injection, schedule: Q01DX009 (ip), vehicle: saline with Tween-80 108 % of control

CCOc1ccccc1C1=CCCCCC1
inactive: [6] 98 % of control | [7] 107 % of control | [8] 103 % of control

C=CCn1c2ccccc2c2c(C)c3cnccc3c(C)c21
inactive: [9] 96 % of control and 102 % of control | [10] 100 % of control and 102 % of control | [6] 103 % of control and 104 % of control | [7] 113 % of control and 116 % of control

NC(CCNCCc1ccccc1)CNCCc1ccccc1 (configuration not stated)
inactive: endpoint: mean survival time, dose: 75.0 mg/kg/injection, schedule: Q01DX001 (ip), vehicle: saline 107 % of control | endpoint: mean survival time, dose: 150.0 mg/kg/injection, schedule: Q01DX001 (ip), vehicle: saline 92 % of control

CC(=O)Nc1nc(C)c(CC/C=C/c2ccc([N+](=O)[O-])cc2)c(=O)[nH]1
inactive: [6] 94 % of control | [7] 97 % of control | [8] 90 % of control

Cc1cccc(N2C(=O)CSC2=S)c1
inactive: [6] 92 % of control | [7] 88 % of control | [8] 95 % of control
